Experimental data published in patent publication US20050065199A1, “Low-salt or salt-free microbicidal composition based on isothiazolone derivatives and pyrion disulphide” (priority 2003, published 2005).
Where two headings read alike, the source gives them in different places.

Key:
[1] = Stabilization of Kathon 39 FG / bromo-2-nitropropane-1,3-diol basic preparation: appearance and pH on storage
Method: A basic preparation which contained 88.34% of purified water, 6.00% of bromo-2-nitropropane-1,3-diol and 5.66% of Kathon 39 FG was made. […] Kathon 39 FG is a mixture of CMI and MI prepared with solvent and a low salt and water content (available from Rohm & Haas Company). Thereafter, 100 g of the basic preparation were brought to a pH of 5.16 with triethanolamine (preparation A) and with imidazole to a pH of 5.32 (preparation B). Preparation C was prepared with the addition of 0.1% of pyrion disulphide to 100 g of the basic preparation. The basic preparation D (without addition) acted as reference. The appearance of a freshly made preparation and the appearance as affected by increasing storage times were examined. In addition, the pH of all preparations was tested after 35 days.

[2] = Method: Moreover, it is preferred that the reaction is carried out over a period of 5 minutes to 4 hours, preferably up to 120 minutes and in particular up to 60 minutes. Suitable reaction temperatures are in the range of from 0 to 80° C., preferably 10 to 40° C. and in particular 20 to 30° C. If appropriate, the stabilizer solution obtained after the reaction can be filtered in order to remove troublesome solid components.

| solubility in water [2] | stabilization of aqueous CMI/MI-based preparation containing 6.00% of bromo-2-nitropropane-1,3-diol [1] | Compound | stabilization of aqueous CMI/MI-based preparation containing 6.00% of bromo-2-nitropropane-1,3-diol ([1]; additive to the basic preparation, versus basic preparation D) |
| --- | --- | --- | --- |
| – | – | c1c[nH]cn1 [imidazole] | stabilizing effect on the composition, albeit to a lesser extent |
| 0.9 % by weight | improved | [O-][n+]1ccccc1SSc1cccc[n+]1[O-] [pyrion disulphide, 2,2′-dithiobis(pyridine N-oxide)] | – |
